From patent US9796672B2, “Isoindoline compositions and methods for treating neurodegenerative disease” (Cognition Therapeutics, Inc., priority 2014, dated 2017)
pEC50, pIC50, pKi: −log10 of the molar value. “Also recorded” adds a separate entry of the source.

Key:
[1] = Mouse liver microsome (MLM) stability; type: in vitro ADME
Procedure: A first pharmacokinetic study was performed in microsomes of mice mouse liver microsomes, MLM) by a commercial contract research organization. The studies were performed according to Obach, R. S et al. (1997) J. Pharmacol. Exp. Ther., 283: 46-58, which is incorporated herein by reference.

neuronal cultures = experiment: Functional neuronal phenotype in neuronal cultures; type: cell-based; design: key: Antagonist: antagonists (block Abeta signaling); Agonist: agonists (block Abeta signaling with U-shaped dose-response curve and toxicity at high doses); Inactive: inactive (no effect in neuronal cultures)
Procedure: Neuronal cultures are treated with various concentrations of sigma compounds for 24 hours and nuclear intensity compared to vehicle is measured.

[2] = tested on: Abeta oligomer-induced membrane trafficking deficits in primary hippocampal neurons; experiment: Membrane trafficking/exocytosis (MTT) assay; conditions: read-out: Membrane Trafficking EC50; compound dosed prior to Abeta oligomer addition
Procedure: Primary hippocampal neurons from E18 Sprague-Dawley rat embryos were plated at optimized concentrations in 384 well plates in NB media (Invitrogen). Neurons were maintained in cultures for 3 weeks, with twice weekly feeding of NB media with N2 supplement (Invitrogen).
MTT reagent (3-(4,5-dimethylthizaol-2yl)-2,5diphenyl tetrazolium bromide) (Roche Molecular Biochemicals) was reconstituted in phosphate buffered saline to 5 mg/mL. 10 μL of MTT labeling reagent is added to each well and incubated at 37° C. for 1 h, then imaged. Exocytosis was assessed by automated microscopy and image processing to quantify the amount of endocytosed and exocytosed formazan.
Each assay plate was formatted so that compounds are tested with and without Abeta oligomer on each plate. […] Reduced formazan was first visible in intracellular vesicles. […] The dye precipitated in the aqueous environment of the culture and formed needle-shaped crystals on the surface of the neuron.

Sigma-1 receptor = Sigma-1 receptor competitive radioligand binding assay; conditions: read-out: Sigma-1 Receptor Affinity, Ki
Procedure: Radioligand binding assays for Sigma-1 receptors and Sigma-2 receptors were carried out by a commercial contract research organization. For Sigma-1 binding, various concentrations of test compounds from 100 μM to 1 nM were used to displace 8 nM [^3H](+)pentazocine from endogenous receptors on Jurkat cell membranes (Ganapathy M E et al. 1991, J Pharmacol. Exp. Ther. 289:251-260). 10 μM Haloperidol was used to define non-specific binding. […] 10 μM Haloperidol was used to define non-specific binding. Reactions were terminated by rapid filtration through Whatman GF/C filters using a Brandel 12R cell harvester followed by two washes with ice-cold buffer. Radioactivity on the dried filter discs was measured using a liquid scintillation analyzer (Tri-Carb 2900TR; PerkinElmer Life and Analytical Sciences). The displacement curves were plotted and the Ki values of the test ligands for the receptor subtypes were determined using GraphPad Prism (GraphPad Software Inc., San Diego, Calif.). The percentage specific binding was determined by dividing the difference between total bound (disintegrations per minute) and nonspecific bound (disintegrations per minute) by the total bound (disintegrations per minute).

Sigma-2 receptor = Sigma-2 receptor competitive radioligand binding assay; design: species or system rat; conditions: read-out: Sigma-2 Receptor Affinity, Ki
Procedure: Radioligand binding assays for Sigma-1 receptors and Sigma-2 receptors were carried out by a commercial contract research organization. For Sigma-1 binding, various concentrations of test compounds from 100 μM to 1 nM were used to displace 8 nM [^3H](+)pentazocine from endogenous receptors on Jurkat cell membranes (Ganapathy M E et al. 1991, J Pharmacol. Exp. Ther. 289:251-260). 10 μM Haloperidol was used to define non-specific binding. For Sigma-2 receptors various concentrations of test compounds from 100 μM to 1 nM were used to displace 5 nM [^3H] […] (Bowen W D, et al. 1993, Mol. Neuropharmcol 3:117-126). 10 μM Haloperidol was used to define non-specific binding. Reactions were terminated by rapid filtration through Whatman GF/C filters using a Brandel 12R cell harvester followed by two washes with ice-cold buffer. Radioactivity on the dried filter discs was measured using a liquid scintillation analyzer (Tri-Carb 2900TR; PerkinElmer Life and Analytical Sciences). The displacement curves were plotted and the Ki values of the test ligands for the receptor subtypes were determined using GraphPad Prism (GraphPad Software Inc., San Diego, Calif.). The percentage specific binding was determined by dividing the difference between total bound (disintegrations per minute) and nonspecific bound (disintegrations per minute) by the total bound (disintegrations per minute).
The affinity of candidate sigma-2 ligand compounds at sigma-1 and sigma-2 receptors was also determined by displacement of different known labeled sigma-2 or sigma-1 ligands. Filtration assays were conducted according the previously published procedure (Xu, et al., 2005). Test compounds were dissolved in N,N-Dimethylformamide (DMF), dimethyl sulfoxide (DMSO) or ethanol and then diluted in 50 mM Tris-HCl pH 7.4 buffer containing 150 mM NaCl and 100 mM EDTA. Membrane homogenates were made from guinea pig brain for sigma-1 binding assay and rat liver for sigma-2 binding assay. Membrane homogenates were diluted with 50 mM Tris-HCl buffer, pH 8.0 and incubated at 25° C. in a total volume of 150 uL in 96 well plates with the radioligand and test compounds with concentrations ranging from 0.1 nM to 10 uM. After incubation was completed, the reactions were terminated by the addition of 150 uL of ice-cold wash buffer (10 mM Tris HCl, 150 mM NaCl, pH 7.4) using a 96 channel transfer pipette (Fisher Scientific, Pittsburgh, Pa.) and the samples harvested and filtered rapidly through 96 well fiber glass filter plate (Millipore, Billerica, Mass.) that had been presoaked with 100 uL of 50 mM Tris-HCl buffer. Each filter was washed four times with 200 uL of ice-cold wash buffer (10 mM Tris-HCl, 150 mM NaCl, pH 7.4). A Wallac 1450 MicroBeta liquid scintillation counter (Perkin Elmer, Boston, Mass.) was used to quantitate the bound radioactivity.
Nonspecific binding was determined from samples that contained 10 uM of cold haloperidol.
The binding affinity, Ki values was calculated using the method of Cheng and Prusoff.

potassium channel hERG = potassium channel hERG (Homo sapiens (Human), UniProt Q12809); experiment: In vitro toxicity, hERG inhibition; type: biochemical
potassium channel hERG, sequence (Q12809 whole entry): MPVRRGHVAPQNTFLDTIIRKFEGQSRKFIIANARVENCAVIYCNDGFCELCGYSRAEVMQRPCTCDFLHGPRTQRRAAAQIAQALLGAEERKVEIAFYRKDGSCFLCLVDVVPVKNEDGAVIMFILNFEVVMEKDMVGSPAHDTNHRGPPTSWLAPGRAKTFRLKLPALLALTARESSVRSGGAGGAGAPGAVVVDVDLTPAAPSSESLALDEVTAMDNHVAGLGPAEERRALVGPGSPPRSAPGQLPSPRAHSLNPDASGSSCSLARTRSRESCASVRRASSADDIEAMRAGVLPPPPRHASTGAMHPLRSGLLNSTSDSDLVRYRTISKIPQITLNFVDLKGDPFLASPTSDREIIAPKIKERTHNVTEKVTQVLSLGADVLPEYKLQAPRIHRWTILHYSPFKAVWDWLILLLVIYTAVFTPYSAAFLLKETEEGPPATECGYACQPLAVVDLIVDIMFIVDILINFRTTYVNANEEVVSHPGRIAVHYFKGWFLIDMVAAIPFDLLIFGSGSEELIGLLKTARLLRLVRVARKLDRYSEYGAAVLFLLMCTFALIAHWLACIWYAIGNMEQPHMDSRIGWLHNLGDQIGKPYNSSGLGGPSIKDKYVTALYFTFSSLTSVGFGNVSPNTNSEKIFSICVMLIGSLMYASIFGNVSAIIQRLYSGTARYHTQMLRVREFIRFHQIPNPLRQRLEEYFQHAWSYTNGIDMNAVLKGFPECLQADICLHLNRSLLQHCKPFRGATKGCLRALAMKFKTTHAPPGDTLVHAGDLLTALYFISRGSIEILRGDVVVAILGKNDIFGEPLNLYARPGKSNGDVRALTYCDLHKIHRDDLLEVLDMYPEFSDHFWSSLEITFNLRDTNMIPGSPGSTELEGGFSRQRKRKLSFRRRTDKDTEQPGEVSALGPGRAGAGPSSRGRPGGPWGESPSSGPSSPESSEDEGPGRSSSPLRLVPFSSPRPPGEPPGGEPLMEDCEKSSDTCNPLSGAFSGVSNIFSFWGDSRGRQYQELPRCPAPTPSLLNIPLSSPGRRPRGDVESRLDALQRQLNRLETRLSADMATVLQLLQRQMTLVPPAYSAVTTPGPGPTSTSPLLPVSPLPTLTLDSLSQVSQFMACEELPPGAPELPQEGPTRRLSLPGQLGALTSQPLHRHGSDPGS
Procedure: In vitro toxicity for Test Compounds is tested in a number of standard assays.

Structure (SMILES) | Mouse liver microsomes, MLM t½ ([1]; mouse, microsomes) | neuronal phenotype (neuronal cultures) | pEC50 [2] | pKi (Sigma-1 receptor) | pKi (Sigma-2 receptor) | Mouse liver microsomes, MLM t½ ([1]; mouse liver microsomes) | pIC50 (potassium channel hERG)
CC(=O)N1CCN(C(=O)c2cccc3c2CN(C(C)(C)CCc2ccc(O)c(OCC(C)C)c2)C3)CC1 [compound 92] | 7 min |  |  |  |  |  | 
CC(C)COc1cc(CCC(C)(C)N2Cc3cccc(C(=O)N(C)C)c3C2)ccc1O [compound 89] | 17 min |  |  |  |  |  | 
COc1cc(CCC(C)N2Cc3ccc4ccccc4c3C2)ccc1O.Cl (stereo not drawn) [compound 17] | 10 min | Antagonist | 6.52 |  |  |  | 
COc1cc(CC[C@@H](C)N2Cc3cc(Cl)c(Cl)cc3C2)ccc1O [compound 3] | 21 min | Neuroactive | 5.42 | 7.64 | 6.62 |  | 
COc1cc(CC[C@@H](C)N2Cc3cc4c(cc3C2)OCO4)ccc1O [compound 6] |  | Antagonist | 6.52 |  |  | 20 min | 6.01
COc1cc(CC[C@@H](C)N2Cc3ccc(S(C)(=O)=O)cc3C2)ccc1O [compound 68] | 152 min | Inactive |  | 7.00 |  |  | 
COc1cccc(CCC(C)(C)N2Cc3cccc(C(=O)N4CCNCC4)c3C2)c1 [compound 98] | 29.35 min | Antagonist/; also recorded: Neuroactive | 6.46 |  | 5.00 |  | 
CC(CCc1ccc(Cl)c(Cl)c1)N1Cc2ccc3ccccc3c2C1 (stereo not drawn) [compound 19] |  | Antagonist |  |  |  |  | 
COc1cc(CCC(C)(C)N2Cc3cccc(F)c3C2)ccc1Cl [compound 112] |  | Antagonist | 6.59 |  |  |  | 
CC(C)(CCc1ccc(Cl)c(Cl)c1)N1Cc2cccc(N3CCNCC3)c2C1 [compound 109] | 253.79 min | Agonist | 4.00 |  | 7.51 |  | 
COc1cccc(CCC(C)(C)N2Cc3ccc(S(C)(=O)=O)cc3C2)c1 [compound 103] | 15.2 min | Inactive | 4.00 |  | 8.85 |  | 
COc1cc(CC[C@@H](C)N2Cc3cccc(F)c3C2)ccc1O [compound 8] | 16 min | Antagonist | 6.40 to 6.60 | 7.39 |  |  | 
C[C@H](CCc1ccc(O)c(OC(C)(C)C)c1)N1Cc2cccc(F)c2C1 [60B] | 8 min | Antagonist | 5.80 |  |  |  | 
C[C@H](CCc1ccc(Cl)c(Cl)c1)N1Cc2ccc(F)cc2C1.Cl [compound 12] | 13 min | Antagonist | 6.40 |  |  |  | 
CC(=O)Oc1ccc(CCC(C)(C)N2Cc3ccc(S(C)(=O)=O)cc3C2)cc1OC(C)(C)C [compound 96] | <1.75 min | Inactive | 4.00 |  | 8.18 |  | 
CN1CCN(C(=O)c2cccc3c2CN(C(C)(C)CCc2ccc(O)c(OC(F)(F)F)c2)C3)CC1 [compound 93] | 5 min |  |  |  |  |  | 
C[C@H](CCc1ccc(OC(=O)N(C)C)c(OC(F)(F)F)c1)N1Cc2cccc(F)c2C1 [compound 41] | 9 min | Inactive/ | < 4.70 | 6.28 |  |  | 
COc1ccc(CCC(C)(C)N2Cc3ccc(S(C)(=O)=O)cc3C2)cc1OC [compound 101] | 84.21 min | Inactive | 4.00 |  | 7.96 |  | 
COc1cc(CC[C@@H](C)N2Cc3ccc(C(F)(F)F)cc3C2)ccc1O [compound 2] | 28 min | Antagonist | 5.11 to 5.17 |  |  |  | 
CC(C)COc1cc(CCC(C)(C)N2Cc3cccc(C(=O)N4CCN(C)CC4)c3C2)ccc1O [compound 91] | 6 min |  |  |  |  |  | 
C[C@H](CCc1ccc(Cl)c(Cl)c1)N1Cc2cc(Cl)c(Cl)cc2C1 [compound 5] | 53 min | Inactive | < 4.70 | 7.25 | 8.57 |  | 
CC(C)(CCc1ccc2[nH]ncc2c1)N1Cc2cccc(C(=O)N3CCNCC3)c2C1 [compound 115] |  | Inactive | 4.00 |  |  |  | 
CC(C)(CCc1ccc(O)c(OC(F)(F)F)c1)N1Cc2cccc(C(=O)N3CCOCC3)c2C1 [compound 94] | 14 min |  |  |  |  |  | 
COc1cc(CCC(C)(C)N2Cc3ccc(S(C)(=O)=O)cc3C2)ccc1Cl [compound 113] |  | Antagonist | 5.28 |  |  |  | 

Structure (SMILES) | Mouse liver microsomes, MLM t½ ([1]; mouse, microsomes) | neuronal phenotype (neuronal cultures) | pEC50 [2] | pKi (Sigma-1 receptor) | pKi (Sigma-2 receptor) | Mouse liver microsomes, MLM t½ ([1]; mouse liver microsomes) | pIC50 (potassium channel hERG)
COc1ccc(CCC(C)(C)N2Cc3cccc(C(=O)N4CCNCC4)c3C2)cc1Cl [compound 118] |  | Inactive | 4.00 |  |  |  | 
COc1cc(CCC(C)(C)N2Cc3ccc(N4CCNCC4)cc3C2)ccc1O [compound 111] | 27.01 min | Inactive | 4.00 |  | 6.13 |  | 
CC(C)(CCc1ccc(F)cc1)N1Cc2cccc(F)c2C1 [compound 33] | 9 min | Antagonist | 5.48 |  |  |  | 
CC(C)COc1cc(CCC(C)(C)N2Cc3cccc(C(=O)N4CCOCC4)c3C2)ccc1O [compound 90] | 9 min |  |  |  |  |  | 
COc1cc(CCC(C)(C)N2Cc3cccc(N4CCNCC4)c3C2)ccc1O [compound 107] | 25.21 min | Inactive | 4.00 |  | 5.00 |  | 
CC(C)(C#Cc1ccc2[nH]ncc2c1)N1Cc2cccc(C(=O)N3CCNCC3)c2C1 [compound 114] |  | Neuroactive | 6.60 |  |  |  | 
COc1ccc(CCC(C)(C)N2Cc3cccc(C(=O)N4CCNCC4)c3C2)cc1OC [compound 100] | 156.24 min | Antagonist | 5.96 |  | 5.00 |  | 
CC(C)(C)Oc1cc(CCC(C)(C)n2cc3ccc(S(C)(=O)=O)cc3c2)ccc1O [compound 95] |  | Antagonist | 5.77 |  | 7.00 |  | 
COc1cccc(CCC(C)(C)n2cc3ccc(S(C)(=O)=O)cc3c2)c1 [compound 104] |  | Inactive | 4.00 |  | 6.12 |  | 
COc1ccc(CCC(C)(C)N2Cc3ccc(S(C)(=O)=O)cc3C2)cc1 [compound 102] | 20.35 min | Inactive | 4.00 |  | 8.74 |  | 
COc1cc(CCC(C)(C)N2Cc3cc4c(cc3C2)OCO4)ccc1OCCO [compound 47] | 91 min | Inactive |  | 6.00 |  |  | 
COc1ccc2c(c1)CN([C@H](C)CCc1ccc(Cl)c(Cl)c1)C2.Cl [compound 15] | 15 min | Inactive | 6.30 |  |  |  | 
C[C@H](CCc1ccc(Cl)c(Cl)c1)N1Cc2cccc(Cl)c2C1.Cl [compound 16] | 12 min | Inactive | < 4.70 |  |  |  | 
COc1cc(CC[C@@H](C)N2Cc3cc(OC)c(OC)cc3C2)ccc1O [compound 7] |  |  |  | 7.38 | 7.17 | 155 min | 
COc1ccc(CCC(C)(C)N2Cc3cccc(C(=O)N4CCNCC4)c3C2)cc1 [compound 99] | 93.3 min | Antagonist/; also recorded: Neuroactive | 6.70 |  | 5.92 |  | 
CC(C)(CCc1ccc(Cl)cc1)N1Cc2cccc(C(=O)N3CCNCC3)c2C1 [compound 105] | 106.23 min | Neuroactive | 5.59 |  | 6.74 |  | 
C[C@H](CCc1ccc(Cl)c(Cl)c1)N1Cc2ccc(C(F)(F)F)cc2C1 [compound 4] | 40 min | Inactive | < 4.70 | 7.48 | 8.66 |  | 
COc1cc(CCC(C)(C)N2Cc3ccc(S(C)(=O)=O)cc3C2)ccc1O [compound 77] | 142 min | Antagonist | 7.00 |  |  |  | 
CC(C)(CCc1ccc(Cl)c(Cl)c1)N1Cc2cccc(C(=O)N3CCNCC3)c2C1 [compound 106] | 160.43 min | Agonist | 5.47 |  | 6.62 |  | 
CC(C)(CCc1ccc(O)c(Cl)c1)N1Cc2ccc(S(C)(=O)=O)cc2C1 [compound 116] |  | Inactive | 4.00 |  |  |  | 
COc1cc2c(cc1OC)CN(C(C)(C)CCc1ccc(F)cc1)C2 [compound 34] | 46 min | Antagonist | 4.89 | 8.12 |  |  | 
CC(C)(CCc1ccc(Cl)c(Cl)c1)N1Cc2ccc(N3CCNCC3)cc2C1 [compound 108] | 1236.31 min | Inactive | 4.00 |  | 7.82 |  | 
CC(C)(C#Cc1ccc2[nH]ncc2c1)N1Cc2ccc(S(C)(=O)=O)cc2C1 [compound 110] | 15.66 min | Inactive | 4.00 |  | 5.00 |  | 
CC(C)(CCc1ccc(O)c(Cl)c1)N1Cc2cccc(F)c2C1 [compound 117] |  | Antagonist | 5.92 |  |  |  | 
